# Key:
# [1] = tested on: MCF-7 cells; assay: Breast Cancer Cell Viability Assay (MCF-7, CellTiter-Glo); assay type: cell-based; conditions: 5 days' compound exposure; for IC50: Homo sapiens, MCF7, 120 h
# Procedure: MCF-7 cells were adjusted to a concentration of 20,000 cells per mL in RPMI containing 10% FBS and 20 mM HEPES. 16 microliters of the cell suspension (320 cells) was added to each well of a 384 well plate, and the cells were incubated overnight to allow the cells to adhere. The following day an eleven point, serial semilog dilution of each compound was added to the cells in 16 μL at a final concentration ranging from 0.3-0.000003 μM. After 5 days' compound exposure, 16 μL of CellTiter-GLo (Promega, Madison Wis.) was added to the cells the relative luminescence units (RLUs) of each well was determined CellTiter-Glo added to 32 μL of medium without cells was used to obtain a background value. The Percent viability of each sample was determined as follows: (RLU sample-RLU background/RLU untreated cells-RLU background)×100=% viability.
# [2] = molecular target: T1, ER-α (Homo sapiens, UniProt P03372); assay: Breast Cancer Cell ER-α In Cell Western Assay (SP1); assay type: cell-based; conditions: MCF-7 cells, SP1 antibody, 4 or 24 hr post compound addition; for Emax: MCF7, read-out: ER-α In Cell Western Assay (SP1) Max Response; for DC50: read-out: ER-α In Cell Western Assay (SP1) IC50
# T1 sequence (P03372 1-595): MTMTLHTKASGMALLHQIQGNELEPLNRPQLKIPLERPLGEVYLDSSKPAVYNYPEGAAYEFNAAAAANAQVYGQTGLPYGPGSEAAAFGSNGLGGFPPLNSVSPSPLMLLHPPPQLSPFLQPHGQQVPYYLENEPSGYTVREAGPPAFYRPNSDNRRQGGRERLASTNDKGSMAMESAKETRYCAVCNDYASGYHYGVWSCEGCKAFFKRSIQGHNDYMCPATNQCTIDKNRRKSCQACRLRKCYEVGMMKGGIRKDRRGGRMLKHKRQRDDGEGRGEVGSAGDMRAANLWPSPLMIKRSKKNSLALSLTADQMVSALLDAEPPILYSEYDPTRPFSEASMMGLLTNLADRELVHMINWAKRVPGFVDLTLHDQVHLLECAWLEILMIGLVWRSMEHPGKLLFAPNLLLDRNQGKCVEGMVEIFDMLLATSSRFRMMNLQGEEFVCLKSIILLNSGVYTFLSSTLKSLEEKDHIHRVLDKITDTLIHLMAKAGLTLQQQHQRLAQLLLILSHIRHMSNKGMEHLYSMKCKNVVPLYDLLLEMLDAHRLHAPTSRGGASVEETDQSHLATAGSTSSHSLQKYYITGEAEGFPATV
# Procedure: MCF-7 cells were adjusted to a concentration of 200,000 cells per mL in RPMI containing 10% charcoal-stripped FBS and 20 mM HEPES. 16 microliters of the cell suspension (3200 cells) was added to each well of a poly-D-lysine 384 well plate, and the cells were incubated overnight to allow the cells to adhere. The following day an eleven point, serial semilog dilution of each compound was added to the cells in 16 μL at a final concentration ranging from 0.3-0.000003 μM. At 4 or 24 hr post compound addition, the cells were fixed (10% formalin in PBS) for 20 minutes. Cells were permeablized in PBS 0.1% Triton and blocked with LICOR blocking buffer (50 μL1/well, 90′). The wells were then incubated overnight at 4° C. with SP1 rabbit monoclonal Ab (Thermo Scientific) diluted 1:1000 in LICOR blocking buffer/0.1% Tween-20. Wells which were treated with blocking buffer with Tween but no antibody were used as a background control. Wells were washed with 0.1% Tween-20/PBS and then incubated in goat anti-rabbit IRDye™ 800CW (LICOR Inc.; 1:1000) and DRAQ5 DNA dye (1:2000 for 2 mM stock) diluted in LICOR blocking buffer containing 0.1% Tween-20 and 0.01% SDS for 60 minutes. Cells were washed (50 μl/well, 5′ each) in 0.1% Tween-20/PBS. Plates were scanned on a LICOR Odyssey infrared imaging system. Integrated intensities in the 800 nm channel and 700 nm channel were measured to determine levels of ER and DNA respectively. Percent ER levels were determined as follows: (Integrated intensity 800 nm sample/integrated intensity 700 nm sample)/(Integrated intensity 800 nm untreated cells/integrated intensity 700 nm untreated cells)×100=% ER levels.
SMILES,IC50 [1],Emax [2],DC50 [2],MCF7 Viability Assay Max Response [1]
"CC/C(=C(/c1ccc(/C=C/C(=O)O)cc1)c1ccc2[nH]ncc2c1C)c1ccccc1 [Compound 36, (E)-3-(4-((E)-1-(4-Methyl-1H-indazol-5-yl)-2-phenylbut-1-en-1-yl)phenyl)acrylic acid]",≤ 100 nM,≥ 40%,≤ 100 nM,++ (++ = a single % value ≧ 40%)
"CC/C(=C(/c1ccc(/C=C/C(=O)O)cc1)c1cc(C)c2[nH]ncc2c1)c1ccccc1 [Compound 37, (E)-3-(4-((E)-1-(7-Methyl-1H-indazol-5-yl)-2-phenylbut-1-en-1-yl)phenyl)acrylic acid]",≤ 100 nM,≥ 40%,≤ 100 nM,++ (++ = a single % value ≧ 40%)
"CC/C(=C(/c1ccc(/C=C/C(=O)O)cc1)c1cc2cn[nH]c2cc1C)c1ccccc1 [Compound 38, (E)-3-(4-((E)-1-(6-Methyl-1H-indazol-5-yl)-2-phenylbut-1-en-1-yl)phenyl)acrylic acid]",> 100 nM,≥ 40%,> 100 nM,++ (++ = a single % value ≧ 40%)
"CC/C(=C(/c1ccc(/C=C/C(=O)O)cc1)c1ccc2[nH]nc(C)c2c1)c1ccccc1 [Compound 39, (E)-3-(4-((E)-1-(3-Methyl-1H-indazol-5-yl)-2-phenylbut-1-en-1-yl)phenyl)acrylic acid]",> 100 nM,≥ 40%,> 100 nM,++ (++ = a single % value ≧ 40%)
"CC/C(=C(/c1ccc(/C=C/C(=O)O)cc1)c1ccc2[nH]nc(Cl)c2c1)c1ccccc1 [Compound 40, (E)-3-(4-((E)-1-(3-Chloro-1H-indazol-5-yl)-2-phenylbut-1-en-1-yl)phenyl)acrylic acid]",> 100 nM,≥ 40%,> 100 nM,++ (++ = a single % value ≧ 40%)
"CC/C(=C(/c1ccc(/C=C/C(=O)O)cc1)c1ccc2[nH]ncc2c1)c1ccc(Cl)cc1C [Compound 41, (E)-3-(4-((E)-2-(4-Chloro-2-methylphenyl)-1-(1H-indazol-5-yl)but-1-en-1-yl)phenyl)acrylic acid]",≤ 100 nM,≥ 40%,≤ 100 nM,++ (++ = a single % value ≧ 40%)
"C/C(=C(/c1ccc(/C=C/C(=O)O)cc1)c1ccc2[nH]ncc2c1)c1ccccc1 [Compound 42, (E)-3-(4-((E)-1-(1H-Indazol-5-yl)-2-phenylprop-1-en-1-yl)phenyl)acrylic acid]",≤ 100 nM,≥ 40%,≤ 100 nM,++ (++ = a single % value ≧ 40%)
"CCC/C(=C(/c1ccc(/C=C/C(=O)O)cc1)c1ccc2[nH]ncc2c1)c1ccccc1 [Compound 43, (E)-3-(4-((E)-1-(1H-Indazol-5-yl)-2-phenylpent-1-en-1-yl)phenyl)acrylic acid]",≤ 100 nM,≥ 40%,≤ 100 nM,++ (++ = a single % value ≧ 40%)
"CC/C(=C(/c1ccc(/C=C/C(=O)O)cc1)c1ccc2[nH]ncc2c1)c1cccc(C#N)c1 [Compound 44, (E)-3-(4-((E)-2-(3-Cyanophenyl)-1-(1H-indazol-5-yl)but-1-en-1-yl)phenyl)acrylic acid]",≤ 100 nM,≥ 40%,,++ (++ = a single % value ≧ 40%)

# The next lines start with results.
IC50 [1],Emax [2],DC50 [2],SMILES,MCF7 Viability Assay Max Response [1]
≤ 100 nM,≥ 40%,,"CC/C(=C(/c1ccc(/C=C/C(=O)O)cc1)c1ccc2[nH]ncc2c1)c1ccc(C#N)cc1 [Compound 45, (E)-3-(4-((E)-2-(4-Cyanophenyl)-1-(1H-indazol-5-yl)but-1-en-1-yl)phenyl)acrylic acid]",++ (++ = a single % value ≧ 40%)
> 100 nM,≥ 40%,> 100 nM,"O=C(O)/C=C/c1ccc(/C(=C(/CCO)c2ccccc2)c2ccc3[nH]ncc3c2)cc1 [Compound 46, (E)-3-(4-((E)-4-Hydroxy-1-(1H-indazol-5-yl)-2-phenylbut-1-en-1-yl)phenyl)acrylic acid]",+ (+ = a single % value < 40%)
≤ 100 nM,≥ 40%,≤ 100 nM,"COCC/C(=C(/c1ccc(/C=C/C(=O)O)cc1)c1ccc2[nH]ncc2c1)c1ccccc1 [Compound 47, (E)-3-(4-((E)-1-(1H-Indazol-5-yl)-4-methoxy-2-phenylbut-1-en-1-yl)phenyl)acrylic acid]",++ (++ = a single % value ≧ 40%)
≤ 100 nM,≥ 40%,≤ 100 nM,"COC/C(=C(/c1ccc(/C=C/C(=O)O)cc1)c1ccc2[nH]ncc2c1)c1ccccc1 [Compound 48, (E)-3-(4-((Z)-1-(1H-Indazol-5-yl)-3-methoxy-2-phenylprop-1-en-1-yl)phenyl)acrylic acid]",++ (++ = a single % value ≧ 40%)
≤ 100 nM,≥ 40%,≤ 100 nM,"CC/C(=C(/c1ccc(/C=C/C(=O)O)cc1)c1ccc2[nH]ncc2c1F)c1ccccc1 [Compound 49, (E)-3-(4-((E)-1-(4-Fluoro-1H-indazol-5-yl)-2-phenylbut-1-en-1-yl)phenyl)acrylic acid]",++ (++ = a single % value ≧ 40%)
≤ 100 nM,≥ 40%,≤ 100 nM,"CC/C(=C(/c1ccc(/C=C/C(=O)O)cc1)c1cc2cn[nH]c2cc1Cl)c1ccccc1 [Compound 50, (E)-3-(4-((E)-1-(6-Chloro-1H-indazol-5-yl)-2-phenylbut-1-en-1-yl)phenyl)acrylic acid]",++ (++ = a single % value ≧ 40%)
≤ 100 nM,≥ 40%,≤ 100 nM,"CC(C)C/C(=C(/c1ccc(/C=C/C(=O)O)cc1)c1ccc2[nH]ncc2c1)c1ccccc1 [Compound 51, (E)-3-(4-((E)-1-(1H-Indazol-5-yl)-4-methyl-2-phenylpent-1-en-1-yl)phenyl)acrylic acid]",++ (++ = a single % value ≧ 40%)
≤ 100 nM,≥ 40%,≤ 100 nM,"CC/C(=C(/c1ccc(/C=C/C(=O)O)cc1)c1ccc2[nH]ncc2c1Cl)c1ccccc1 [Compound 52, (E)-3-(4-((E)-1-(4-Chloro-1H-indazol-5-yl)-2-phenylbut-1-en-1-yl)phenyl)acrylic acid]",++ (++ = a single % value ≧ 40%)
≤ 100 nM,≥ 40%,≤ 100 nM,"O=C(O)/C=C/c1ccc(/C(=C(\c2ccccc2)C2CCCC2)c2ccc3[nH]ncc3c2)cc1 [Compound 53, (E)-3-(4-((E)-2-Cyclopentyl-1-(1H-indazol-5-yl)-2-phenylvinyl)phenyl)acrylic acid]",++ (++ = a single % value ≧ 40%)
≤ 100 nM,≥ 40%,≤ 100 nM,"O=C(O)/C=C/c1ccc(/C(=C(\c2ccccc2)C2CCCCC2)c2ccc3[nH]ncc3c2)cc1 [Compound 54, (E)-3-(4-((E)-2-Cyclohexyl-1-(1H-indazol-5-yl)-2-phenylvinyl)phenyl)acrylic acid]",++ (++ = a single % value ≧ 40%)
